In patent US9926304B2, “1-(arylmethyl)quinazoline-2,4(1H,3H)-diones as PARP inhibitors and the use thereof” (Impact Therapeutics, Inc., priority 2011, dated 2018):
Counter-ions that a name gives are not always drawn. Like-named read-outs stand apart in the source and are kept apart here.

Experiments:
[1] = test system: Human breast cancer cell line T47D; experiment: Cell based caspase-3 activity assay: potentiation of MMS induced apoptosis; details: T47D cells, 11.1 μg/ml MMS, 24 hours, intracellular caspase-3 activity, read-out: EC50 (nM), potentiation of the apoptosis inducing activity of MMS
How it was run: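 T47D cells were exposed for 24 h to compound plus a minimally apoptotic MMS dose (medium containing 11.1 μg/ml MMS). Lysates were incubated 3 h at 37 °C with (Ac-DEVD)2-R110 caspase-3 substrate (20 μM in added buffer) and read at ex 496/em 520 nm. EC50 came from a sigmoidal fit of RFU versus log concentration.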

[2] = test system: SW620 human colorectal cancer cells; experiment: MTT based cell viability assay: potentiation of the growth inhibiting activity of MMS
Protocol: Briefly, SW620 human colorectal cancer cells were used to measure the cell growth inhibiting activity of DNA alkylating anticancer drug MMS. […] SW620 cells were grown and maintained in RPMI1640 (Gibco) medium supplemented with 10% FBS (Hyclone). In the first day of experiment, 4000 cells were seeded to each well of a 96-well cell culture plate and incubated at 37° C. and 5% CO2 in a cell culture incubator overnight. In the next day, the cell culture medium was removed. […] The serial dilutions of the reference compounds and the compounds to be tested were made with a 1:3 and 1:10 fashion in DMSO. The 10-fold concentrated solutions of these compounds were made by mixing 10 μl of the serial dilutions in DMSO with 90 μl fresh medium. The final concentration of DMSO in the medium was 1%. The cells were incubated at 37° C. in 5% CO2 cell culture incubator for additional 5 days (120 hours). Afterwards, the 96-well cell culture plate was taken out and 20 μl of MTT solution was added to each well and incubated at 37° C. for 4 h. The medium was removed and 100 μl DMSO was added to each well. The 96-well cell culture plates were shaked adequately for 10 min and read in a Varioskan Flash plate reader (Thermo Fisher Scientific) at 520 and 690 nm. The data were analyzed by Prism 5 software (GraphPad). The obtained 520 nm absorbance readings subtracting corresponding 690 nm reading were analyzed and plotted against the Log scale of the compound concentrations.

[3] = Homo sapiens, SW-620, 120 h, read-out: IC50 (nM), potentiation of the growth inhibiting activity of MMS, SW620 cells, 1.7 μg/ml MMS, 5 days (120 hours), MTT
[4] = read-out: IC50 (nM), potentiation of the growth inhibiting activity of MMS, SW620 cells, 1.7 μg/ml MMS, 5 days (120 hours), MTT, hydrochloride

With `O=C(c1ccc(F)c(Cn2c(=O)[nH]c(=O)c3cc(Cl)ccc32)c1)N1CCN(c2ccccn2)CC1` [Example 174, 6-Chloro-1-(6-fluoro-3-(4-(pyridin-2-yl)piperazine-1-carbonyl)benzyl)quinazoline-2,4(1H,3H)-dione] the EC50 ([1]; Homo sapiens, T47D, 24 h) was 37 nM and the IC50 [2, 3] was 94 nM.
Compound `O=C(c1cc(F)cc(Cn2c(=O)[nH]c(=O)c3cc(Cl)ccc32)c1)N1CCN(c2ncccn2)CC1` [Example 175, 6-Chloro-1-(5-fluoro-3-(4-(pyrimidin-2-yl)piperazine-1-carbonyl)benzyl)quinazoline-2,4(1H,3H)-dione] has an EC50 ([1]; Homo sapiens, T47D, 24 h) of 14 nM and an IC50 [2, 3] of 16 nM.
For `O=C(c1cccc(Cn2c(=O)[nH]c(=O)c3ccccc32)c1)N1CCN(C2CCCC2)CC1` [Example 177, 1-(3-(4-Cyclopentylpiperazine-1-carbonyl)benzyl)quinazoline-2,4(1H,3H)-dione], the EC50 ([1]; Homo sapiens, T47D, 24 h) was 743 nM and the IC50 [2, 3] was > 10000 nM.
`O=C(c1cc(Cn2c(=O)[nH]c(=O)c3cc(F)ccc32)ccc1F)N1CCN(C(=O)C2CC2)CC1` [Example 178, 1-(3-(4-(Cyclopropylcarbonyl)piperazine-1-carbonyl)-4-fluorobenzyl)-6-fluoroquinazoline-2,4(1H,3H)-dione] was tested, and the EC50 ([1]; Homo sapiens, T47D, 24 h) was 11 nM and the IC50 [2, 3] was 7.9 nM.
In the case of `O=C(c1cccc(Cn2c(=O)[nH]c(=O)c3cc(F)ccc32)c1)N1CCN(C(=O)C2CCC2)CC1` [Example 179, 1-(3-(4-(Cyclobutylcarbonyl)piperazine-1-carbonyl)benzyl)-6-fluoroquinazoline-2,4(1H,3H)-dione], the EC50 ([1]; Homo sapiens, T47D, 24 h) is reported as 7.4 nM and the IC50 [2, 3] is reported as 12 nM.
`O=C(c1cc(Cn2c(=O)[nH]c(=O)c3cc(F)ccc32)ccc1F)N1CCN(C(=O)C2CCC2)CC1` [Example 180, 1-(3-(4-(Cyclobutylcarbonyl)piperazine-1-carbonyl)-4-fluorobenzyl)-6-fluoroquinazoline-2,4(1H,3H)-dione] was tested, and the EC50 ([1]; Homo sapiens, T47D, 24 h) was 1.4 nM and the IC50 [2, 3] was 3.1 nM.
In the case of `O=C(c1ccccc1)N1CCN(C(=O)c2cc(Cn3c(=O)[nH]c(=O)c4cc(F)ccc43)ccc2F)CC1` [Example 181, 1-(3-(4-Benzoylpiperazine-1-carbonyl)-4-fluorobenzyl)-6-fluoroquinazoline-2,4(1H,3H)-dione], the EC50 ([1]; Homo sapiens, T47D, 24 h) is reported as 2.4 nM and the IC50 [2, 3] is reported as 4.9 nM.
Compound `O=C(c1ccc(F)c(Cn2c(=O)[nH]c(=O)c3c(F)cccc32)c1)N1CCN(C(=O)C2CCC2)CC1` [Example 182, 1-(3-(4-(Cyclobutylcarbonyl)piperazine-1-carbonyl)-6-fluorobenzyl)-5-fluoroquinazoline-2,4(1H,3H)-dione] has an EC50 ([1]; Homo sapiens, T47D, 24 h) of 14 nM and an IC50 [2, 3] of 16 nM.
`O=C(c1ccc(F)c(Cn2c(=O)[nH]c(=O)c3cc(F)ccc32)c1)N1CCN(C(=O)C2CCC2)CC1` [Example 183, 1-(3-(4-(Cyclobutylcarbonyl)piperazine-1-carbonyl)-6-fluorobenzyl)-6-fluoroquinazoline-2,4(1H,3H)-dione] showed an EC50 ([1]; Homo sapiens, T47D, 24 h) of 6.1 nM and an IC50 [2, 3] of 13 nM.
For `O=C(c1ccc(F)c(Cn2c(=O)[nH]c(=O)c3c(F)cccc32)c1)N1CCN(C(=O)c2ccco2)CC1` [Example 184, 5-Fluoro-1-(6-fluoro-3-(4-(furan-2-carbonyl)piperazine-1-carbonyl)benzyl)quinazoline-2,4(1H,3H)-dione], the EC50 ([1]; Homo sapiens, T47D, 24 h) was 18 nM and the IC50 [2, 3] was 62 nM.
With `O=C(c1ccc(Cl)c(Cn2c(=O)[nH]c(=O)c3cc(F)ccc32)c1)N1CCN(c2ncccn2)CC1` [Example 187, 1-(6-Chloro-3-(4-(pyrimidin-2-yl)piperazine-1-carbonyl)benzyl)-6-fluoroquinazoline-2,4(1H,3H)-dione] the EC50 ([1]; Homo sapiens, T47D, 24 h) was 30 nM and the IC50 [2, 3] was 27 nM.
Compound `O=C(c1cc(Cn2c(=O)[nH]c(=O)c3ccccc32)ccc1F)N1CCN(c2ncccn2)CC1` [Example 192, 1-(4-Fluoro-3-(4-(pyrimidin-2-yl)piperazine-1-carbonyl)benzyl)quinazoline-2,4(1H,3H)-dione hydrochloride] has an EC50 ([1]; hydrochloride) of 3.1 nM and an IC50 [2, 4] of 79 nM.
In the case of `O=C(c1cc(Cn2c(=O)[nH]c(=O)c3c(F)cccc32)ccc1F)N1CCN(c2ncccn2)CC1` [Example 193, 5-Fluoro-1-(4-fluoro-3-(4-(pyrimidin-2-yl)piperazine-1-carbonyl)benzyl)quinazoline-2,4(1H,3H)-dione hydrochloride], the EC50 ([1]; hydrochloride) is reported as 1.6 nM and the IC50 [2, 4] is reported as 4.5 nM.
Work on `O=C(c1cccc(Cn2c(=O)[nH]c(=O)c3ccccc32)c1)N1CCN(c2ncccn2)CC1` [Example 194, 1-(3-(4-(Pyrimidin-2-yl)piperazine-1-carbonyl)benzyl)quinazoline-2,4(1H,3H)-dione hydrochloride] yielded an EC50 ([1]; Homo sapiens, T47D, 24 h) of 11 nM and an IC50 [2, 3] of 18 nM.
In the case of `O=c1[nH]c(=O)n(Cc2cccc(CN3CCN(c4ccccn4)CC3)c2)c2ccccc12` [Example 195, 1-(3-((4-(Pyridin-2-yl)piperazin-1-yl)methyl)benzyl)quinazoline-2,4(1H,3H)-dione], the EC50 ([1]; Homo sapiens, T47D, 24 h) is reported as 471 nM and the IC50 [2, 3] is reported as 1440 nM.
With `O=C(Cc1ccc2ccccc2c1)Nc1cccc(Cn2c(=O)[nH]c(=O)c3ccccc32)c1` [Example 196, 1-(3-(Naphthalen-2-yl)acetamidobenzyl)quinazoline-2,4(1H,3H)-dione] the EC50 ([1]; Homo sapiens, T47D, 24 h) was > 10000 nM and the IC50 [2, 3] was 985 nM.
For `COc1ccc(CC(=O)Nc2cccc(Cn3c(=O)[nH]c(=O)c4ccccc43)c2)cc1OC` [Example 197, 1-(3-(3,4-Dimethoxyphenyl)acetamidobenzyl)quinazoline-2,4(1H,3H)-dione], the EC50 ([1]; Homo sapiens, T47D, 24 h) was > 10000 nM and the IC50 [2, 3] was > 10000 nM.
In the case of `O=C(c1cccc(Cn2c(=O)[nH]c(=O)c3ccccc32)c1)c1ccc2nncn2c1` [Example 198, 1-(3-([1,2,4]Triazolo[4,3-a]pyridine-6-carbonyl)benzyl)quinazoline-2,4(1H,3H)-dione], the EC50 ([1]; Homo sapiens, T47D, 24 h) is reported as > 10000 nM and the IC50 [2, 3] is reported as > 10000 nM.
With `COc1ccc(CNC(=O)c2cc(Cn3c(=O)[nH]c(=O)c4c(F)cccc43)ccc2F)cc1` [Example 200, 5-Fluoro-1-(4-fluoro-3-(4-methoxybenzylcarbamoyl)benzyl)quinazoline-2,4(1H,3H)-dione] the EC50 ([1]; Homo sapiens, T47D, 24 h) was > 10000 nM and the IC50 [2, 3] was > 10000 nM.
In the case of `O=C(NCc1cccc(Cl)c1)c1cc(Cn2c(=O)[nH]c(=O)c3c(F)cccc32)ccc1F` [Example 201, 1-(3-(3-Chlorobenzylcarbamoyl)-4-fluorobenzyl)-5-fluoroquinazoline-2,4(1H,3H)-dione], the EC50 ([1]; Homo sapiens, T47D, 24 h) is reported as > 10000 nM and the IC50 [2, 3] is reported as > 10000 nM.
With `O=C(NCc1ccccc1)c1cc(Cn2c(=O)[nH]c(=O)c3c(F)cccc32)ccc1F` [Example 202, 1-(3-(Benzylcarbamoyl)-4-fluorobenzyl)-5-fluoroquinazoline-2,4(1H,3H)-dione] the EC50 ([1]; Homo sapiens, T47D, 24 h) was > 10000 nM and the IC50 [2, 3] was > 10000 nM.
For `COc1cccc2c1c(=O)[nH]c(=O)n2Cc1cccc(C(=O)N2CCN(c3ncccn3)CC2)c1` [Example 203, 5-Methoxy-1-(3-(4-(pyrimidin-2-yl)piperazine-1-carbonyl)benzyl)quinazoline-2,4(1H,3H)-dione], the EC50 ([1]; Homo sapiens, T47D, 24 h) was > 10000 nM and the IC50 [2, 3] was > 10000 nM.
`COc1ccc2c(c1)c(=O)[nH]c(=O)n2Cc1cccc(C(=O)N2CCN(c3ncccn3)CC2)c1` [Example 204, 6-Methoxy-1-(3-(4-(pyrimidin-2-yl)piperazine-1-carbonyl)benzyl)quinazoline-2,4(1H,3H)-dione] was tested, and the EC50 ([1]; Homo sapiens, T47D, 24 h) was > 10000 nM and the IC50 [2, 3] was > 10000 nM.
For `O=C(c1cccc(Cn2c(=O)[nH]c(=O)c3ccc(C(F)(F)F)cc32)c1)N1CCN(c2ncccn2)CC1` [Example 206, 1-(3-(4-(Pyrimidin-2-yl)piperazine-1-carbonyl)benzyl)-7-(trifluoromethyl)quinazoline-2,4(1H,3H)-dione], the EC50 ([1]; Homo sapiens, T47D, 24 h) was > 10000 nM and the IC50 [2, 3] was > 10000 nM.
With `O=C(c1cccc(Cn2c(=O)[nH]c(=O)c3cc4c(cc32)OCCO4)c1)N1CCN(c2ncccn2)CC1` [Example 207, 6,7-Ethylenedioxo-1-(3-(4-(pyrimidin-2-yl)piperazine-1-carbonyl)benzyl)quinazoline-2,4(1H,3H)-dione] the EC50 [1] was > 10000 nM and the IC50 ([2]; read-out: IC50 (nM), potentiation of the growth inhibiting activity of MMS, SW620 cells, 1.7 μg/ml MMS, 5 days (120 hours), MTT) was > 10000 nM.
`COc1ccc(C(=O)N2CCN(c3ncccn3)CC2)cc1Cn1c(=O)[nH]c(=O)c2c(F)cccc21` [Example 208, 5-Fluoro-1-(6-methoxy-3-(4-(pyrimidin-2-yl)piperazine-1-carbonyl)benzyl)quinazoline-2,4(1H,3H)-dione] was tested, and the EC50 ([1]; Homo sapiens, T47D, 24 h) was 24 nM and the IC50 [2, 3] was 37 nM.
For `COc1ccc2c(=O)[nH]c(=O)n(Cc3cccc(C(=O)N4CCN(c5ncccn5)CC4)c3)c2c1` [Example 209, 7-Methoxy-1-(3-(4-(pyrimidin-2-yl)piperazine-1-carbonyl)benzyl)quinazoline-2,4(1H,3H)-dione], the EC50 ([1]; Homo sapiens, T47D, 24 h) was 294 nM and the IC50 [2, 3] was 103 nM.
Compound `O=C(c1cc(Cn2c(=O)[nH]c(=O)c3c(F)cccc32)ccc1[N+](=O)[O-])N1CCN(c2ncccn2)CC1` [Example 211, 5-Fluoro-1-(4-nitro-3-(4-(pyrimidin-2-yl)piperazine-1-carbonyl)benzyl)quinazoline-2,4(1H,3H)-dione] has an EC50 ([1]; Homo sapiens, T47D, 24 h) of 166 nM and an IC50 [2, 3] of 145 nM.
With `O=C(c1cc(Cn2c(=O)[nH]c(=O)c3c(F)cccc32)ccc1F)N1CCN(c2ccccc2)CC1` [Example 213, 5-Fluoro-1-(4-fluoro-3-(4-phenylpiperazine-1-carbonyl)benzyl)quinazoline-2,4(1H,3H)-dione] the EC50 ([1]; Homo sapiens, T47D, 24 h) was 590 nM and the IC50 [2, 3] was 58 nM.
`O=C(c1cc(Cn2c(=O)[nH]c(=O)c3c(F)cccc32)ccc1F)N1CCC(c2ccccc2)CC1` [Example 214, 5-Fluoro-1-(4-fluoro-3-(4-phenylpiperidine-1-carbonyl)benzyl)quinazoline-2,4(1H,3H)-dione] was tested, and the EC50 ([1]; Homo sapiens, T47D, 24 h) was 654 nM and the IC50 [2, 3] was 517 nM.
